This note sets out measurements from patent publication US20180221438A1, “MODULATING URACIL-DNA GLYCOSYLASE AND USES THEREOF” (Adaerata Limited Partnership, priority 2015, published 2018).

What all share (type): cell-based
Data set [1] has as its system B cells from wt or UNG−/− mice. The experiment in a line: B cell divisions by CFSE dilution after DidB treatment. The settings on record: Ung-deficient vs wt B cells. How it is done: (§1) B cells were purified from wt or UNG−/− mice, and cultured directly with LPS and IL-4 and were counted 48 h post-treatment in order to measure B cell expansion (FIG. 14B); or after loading with the CFSE dye and cell divisions for treated cells were measured by analyzing the dilution of CFSE dye at 24 h post-treatment. Dilution of CFSE in cells is proportional to proliferation (FIGS. 14C-D).
(§2) 24 h later, cells were treated with either DMSO or DidB.

Data set [2] deals with B cells from wt or UNG−/− mice. The experiment in a line: B cell expansion by cell count after DidB treatment. The settings on record: cells counted 48 h post-treatment, LPS and IL-4. As for the experimental part: as §1, §2
Data set [3] relates to Primary B cells from AID UNG double deficient mice. The following applies: 1 nM DidB, 72 h, AID-ires-GFP vs GFP alone or AIDE58A. How it is done: Primary B cells were harvested from AID UNG double deficient mice and cultured with anti-CD180, IL-4 and LPS. […] 24 h post infection, cells were treated with either DMSO vehicle or 1 nM of the EEF1A inhibitor DidB. Toxicity was measured after 72 h as the % difference of GFP+ cells in the DidB-treated culture compared to DMSO control. Data from two mice are averaged, bars are SEM.

Regarding `CC[C@H](C)[C@H]1NC(=O)[C@@H](NC(=O)[C@@H](CC(C)C)N(C)C(=O)[C@@H]2CCCN2C(=O)C(C)O)[C@@H](C)OC(=O)[C@H](Cc2ccc(OC)cc2)N(C)C(=O)[C@@H]2CCCN2C(=O)[C@H](CC(C)C)NC(=O)[C@@H](C)C(=O)[C@H](C(C)C)OC(=O)C[C@@H]1O` (stereo partly shown) [DidB, didemnin B], in data set [1] (24 h post-treatment), the “sensitivity to DidB treatment (cell divisions, CFSE)” value is on record as “more sentitive”. Besides, the inhibition of proliferation entry in data set [1] (dose-dependent, CFSE dilution 24 h post-treatment) is “more marked in Ung-deficient B cells than wt B cells”. Besides, in data set [2], the B cell expansion result is “further diminishes expansion in Ung-deficient B cells”. The “sensitivity to DidB (toxicity, % difference of GFP+ cells vs DMSO)” value in data set [3] is reported as “substantially more sensitive”.
